This is an account of results in ChEMBL document CHEMBL5442379, “ASAP - SARS-CoV-2 nsp3 macrodomain single point” (2024).

This test has as its target Replicase polyprotein 1ab (Severe acute respiratory syndrome coronavirus 2) (UniProt P0DTD1).

Description: Functional biochemical assay to identify treatments for viral infectious disease that targets SARS-COV-2 nsp3 macrodomain, whereby the mechanism of action displaces an ADP-Ribose modified peptide from the binding site. Utilizing a time-resolved fluorescence method to measure binding by reading the emitted fluorescence intensity in two wavelengths.

In the case of `CN(C[C@H]1CCCN1)C(=O)c1cnn2ccc(C3CCN(C(=O)c4ccccc4)CC3)cc12`, the inhibition is, setting by setting: (Concentration 49.75 uM, Number of replicates 2.0, Standard deviation 0.33 %) -7.47%; (Concentration 99.5 uM, Number of replicates 2.0, Standard deviation 2.559 %) -6.59%. For the compound `c1nc(N2CC[C@@H](n3cncn3)C2)c2cc[nH]c2n1`, the inhibition (Concentration 50.0 uM, Number of replicates 2.0, Standard deviation 1.464 %) is -1.54%.

Regarding `CN(C)[C@@H]1CCCN(C(=O)c2cnc3c(c2)c(=O)[nH]c(=O)n3C)CC1`, where the note is “Concentration 50.0 uM, Number of replicates 2.0, Standard deviation 1.745 %”, the inhibition was -8.97%. For the compound `O=C1C[C@H](CNC(=O)c2ccc(NC(=O)Nc3ccccc3)cc2)CCN1`, the inhibition by setting is: (Concentration 49.75 uM, Number of replicates 2.0, Standard deviation 1.043 %) 1.22%; (Concentration 99.5 uM, Number of replicates 2.0, Standard deviation 0.12 %) 4.01%. Turning to `CN(C(=O)c1ccc(NC(=O)Nc2ccccc2)cc1)[C@@H]1CN2CCC1CC2`, the inhibition is, setting by setting: (Concentration 49.75 uM, Number of replicates 2.0, Standard deviation 0.826 %) -4.01%; (Concentration 99.5 uM, Number of replicates 2.0, Standard deviation 1.597 %) 2.77%. Regarding `C[C@]1(C(=O)N(CCC(=O)N2CCNCC2)Cc2cccc(Cl)c2)CCCN1`, the inhibition runs as follows: (Concentration 49.75 uM, Number of replicates 2.0, Standard deviation 5.247 %) 1.4%; (Concentration 99.5 uM, Number of replicates 2.0, Standard deviation 0.402 %) 2.13%. `OC[C@@H](Nc1ncnc2[nH]c(I)cc12)c1ccccc1`: where the note is “Concentration 50.0 uM, Number of replicates 2.0, Standard deviation 1.35 %”, the inhibition is 26.1%. `Cc1cc(NCc2csc(C)n2)ncn1`: the inhibition (Concentration 50.0 uM, Number of replicates 2.0, Standard deviation 0.576 %) was -4.64%. Take `Cc1nn(-c2ccccc2)c(C)c1[C@H]1COCCN1c1ncnc2[nH]ccc12`: the inhibition was -0.042% (Concentration 49.75 uM, Number of replicates 2.0, Standard deviation 1.442 %) and -4.22% (Concentration 99.5 uM, Number of replicates 2.0, Standard deviation 1.631 %). Take `C[C@@H](Nc1ncnc2[nH]ccc12)c1cnn(Cc2ccccc2)c1`: the inhibition (Concentration 49.75 uM, Number of replicates 2.0, Standard deviation 0.659 %) is -4.11% and the inhibition (Concentration 99.5 uM, Number of replicates 2.0, Standard deviation 0.985 %) worked out at 3.18%. On to `FC(F)(F)CO[C@@H]1CCCN(c2ncnc3[nH]ccc23)C1`, for which the inhibition (Concentration 50.0 uM, Number of replicates 2.0, Standard deviation 28.677 %) was 22.2%. For `CC(C)[C@@H]1[C@H](O)CCN1c1ncnc2[nH]ccc12`, the inhibition (Concentration 49.75 uM, Number of replicates 2.0, Standard deviation 3.675 %) was found to be 17.7% and the inhibition (Concentration 99.5 uM, Number of replicates 2.0, Standard deviation 0.827 %) was determined as 32.1%. In the case of `O=C(OCC(Br)=C1CCOCC1)c1ncnc2[nH]ccc12`, for the setting “Concentration 50.0 uM, Number of replicates 2.0, Standard deviation 2.217 %”, the inhibition is -5.36%. Regarding `Cc1ccc(NC(=O)c2cnn3ccc(C4CCN(C(=O)c5ccccc5)CC4)cc23)cc1C(=O)O`, the inhibition is, setting by setting: (Concentration 49.75 uM, Number of replicates 2.0, Standard deviation 0.305 %) -1.05%; (Concentration 99.5 uM, Number of replicates 2.0, Standard deviation 2.043 %) -0.624%. With `Cc1cc(NCc2ncccc2O)ncn1`, the inhibition (Concentration 50.0 uM, Number of replicates 2.0, Standard deviation 4.706 %) was -3.33%. Take `Cc1c([C@@H](C)Nc2ncnc3[nH]ccc23)cnn1-c1ccccc1`: the inhibition by setting is: (Concentration 49.75 uM, Number of replicates 2.0, Standard deviation 1.063 %) 28.1%; (Concentration 99.5 uM, Number of replicates 2.0, Standard deviation 3.12 %) 41.7%. For `Cc1[nH]cnc1C(=O)N1CCC(c2ccn3ncc(C(=O)N4CCCCC4)c3c2)CC1`, the inhibition is, setting by setting: (Concentration 49.75 uM, Number of replicates 2.0, Standard deviation 1.318 %) 16.4%; (Concentration 99.5 uM, Number of replicates 2.0, Standard deviation 4.675 %) 32%. On to `Cc1n[nH]cc1CN(C)C(=O)c1ccc(NC(=O)Nc2ccccc2)cc1`, for which the inhibition was -3.77% (Concentration 49.75 uM, Number of replicates 2.0, Standard deviation 4.474 %) and -0.031% (Concentration 99.5 uM, Number of replicates 2.0, Standard deviation 2.774 %). `Cn1ncnc1C(=O)N1CCC(c2ccn3ncc(C(=O)N4CCCCC4)c3c2)CC1`: the inhibition runs as follows: (Concentration 49.75 uM, Number of replicates 2.0, Standard deviation 0.221 %) 2.38%; (Concentration 99.5 uM, Number of replicates 2.0, Standard deviation 2.086 %) 20.4%. On to `COCc1nc(CNc2ncc3c(n2)COC3)cs1`, for which the inhibition (Concentration 50.0 uM, Number of replicates 2.0, Standard deviation 8.324 %) is -7.14%.

For `Cc1nc(NC(=O)c2nccc3ccncc23)c2cc[nH]c2n1`, the inhibition reads like this: (Concentration 50.0 uM, Number of replicates 2.0, Standard deviation 2.951 %) -5.83%; (Concentration 100.0 uM, Number of replicates 2.0, Standard deviation 4.025 %) 2.61%. For `Cn1cc([C@H]2CCCCN2c2ncnc3[nH]ccc23)cn1`, the inhibition was determined as 6.39% (Concentration 49.75 uM, Number of replicates 2.0, Standard deviation 3.479 %) and 8.32% (Concentration 99.5 uM, Number of replicates 2.0, Standard deviation 0.865 %). With `c1ccc(-c2cc(CNc3ncnc4[nH]ccc34)on2)cc1`, the inhibition (Concentration 50.0 uM, Number of replicates 2.0, Standard deviation 8.772 %) stood at 7.14% and the inhibition (Concentration 100.0 uM, Number of replicates 2.0, Standard deviation 1.845 %) was -3.46%. `O=C(c1ccncc1)N1CCC(c2ccn3ncc(C(=O)N4CCCCC4)c3c2)CC1`: the inhibition (Concentration 49.75 uM, Number of replicates 2.0, Standard deviation 1.966 %) came out at 10.8% and the inhibition (Concentration 99.5 uM, Number of replicates 2.0, Standard deviation 0.415 %) came to 26.5%. Take `Cn1cc(Br)c(CNC(=O)c2ccc(NC(=O)Nc3ccccc3)cc2)n1`: the inhibition amounted to 4.31% (Concentration 49.75 uM, Number of replicates 2.0, Standard deviation 4.908 %) and 1.2% (Concentration 99.5 uM, Number of replicates 2.0, Standard deviation 1.253 %). Turning to `O=C1CCN(C(=O)c2cnn3ccc(C4CCN(C(=O)c5ccccc5)CC4)cc23)CCN1`, the inhibition is, setting by setting: (Concentration 49.75 uM, Number of replicates 2.0, Standard deviation 0.064 %) -2.4%; (Concentration 99.5 uM, Number of replicates 2.0, Standard deviation 5.989 %) -7.81%. Regarding `COc1cc(CC(=O)Nc2cc3c(=O)nc[nH]c3cn2)on1`, the inhibition was -4.69% (Concentration 49.75 uM, Number of replicates 2.0, Standard deviation 0.449 %) and -3.48% (Concentration 99.5 uM, Number of replicates 2.0, Standard deviation 2.956 %). In the case of `Nc1c(O)cccc1C(=O)N(CCC(=O)N1CCNCC1)Cc1cccc(Cl)c1`, the inhibition is -1.24% (Concentration 49.75 uM, Number of replicates 2.0, Standard deviation 0.165 %) and 1.46% (Concentration 99.5 uM, Number of replicates 2.0, Standard deviation 3.032 %). On to `O=C(NCc1ccc(Cl)cn1)c1ncnc2[nH]ccc12`, for which the inhibition by setting is: (Concentration 50.0 uM, Number of replicates 2.0, Standard deviation 1.293 %) -4.96%; (Concentration 100.0 uM, Number of replicates 2.0, Standard deviation 0.093 %) -2.57%. As to `Cn1nc(C(=O)N2CCC(c3ccn4ncc(C(=O)N5CCCCC5)c4c3)CC2)cc1C(=O)O`, the inhibition by setting is: (Concentration 49.75 uM, Number of replicates 2.0, Standard deviation 1.938 %) 42.7%; (Concentration 99.5 uM, Number of replicates 2.0, Standard deviation 2.395 %) 59.7%. For `O=C(C[C@@H](NC(=O)c1ncnc2[nH]ccc12)C1CC1)NCc1ccc(C(=O)O)cc1`, the inhibition runs as follows: (Concentration 49.75 uM, Number of replicates 2.0, Standard deviation 1.213 %) -9.86%; (Concentration 99.5 uM, Number of replicates 2.0, Standard deviation 0.076 %) 0.768%.

`O=C(CCN(Cc1cccc(Cl)c1)C(=O)C1(O)CCCC1)N1CCNCC1`: the inhibition reads like this: (Concentration 49.75 uM, Number of replicates 2.0, Standard deviation 1.82 %) -1.21%; (Concentration 99.5 uM, Number of replicates 2.0, Standard deviation 0.971 %) -1.78%. For `CC(C)Cn1cc([C@H]2N(c3ncnc4[nH]ccc34)CC23CCOCC3)cn1`, the inhibition by setting is: (Concentration 49.75 uM, Number of replicates 2.0, Standard deviation 1.28 %) -0.591%; (Concentration 99.5 uM, Number of replicates 2.0, Standard deviation 6.534 %) -4.66%. For the compound `N[C@@H]1CCC[C@@H](C(=O)N(CCC(=O)N2CCNCC2)Cc2cccc(Cl)c2)C1`, the inhibition by setting is: (Concentration 49.75 uM, Number of replicates 2.0, Standard deviation 0.617 %) -0.755%; (Concentration 99.5 uM, Number of replicates 2.0, Standard deviation 0.793 %) -1.47%. On to `CO[C@@H](CNc1ncnc2[nH]ccc12)c1cccc(Cl)c1`, for which the inhibition amounted to 4.1% (Concentration 50.0 uM, Number of replicates 2.0, Standard deviation 2.381 %) and 14.2% (Concentration 100.0 uM, Number of replicates 2.0, Standard deviation 2.011 %). As for `c1ccc(Cn2ncc3c2CCC[C@@H]3Nc2ncnc3[nH]ccc23)cc1`, the inhibition (Concentration 50.0 uM, Number of replicates 2.0, Standard deviation 3.356 %) was 5.85%.

Take `CCn1cc(CNc2cc3c(O)ncnc3cn2)nn1`: under “Concentration 50.0 uM, Number of replicates 2.0, Standard deviation 1.563 %”, the inhibition was found to be 1.67%. As for `O=C(CCN(Cc1cccc(Cl)c1)C(=O)c1ccccc1F)N1CCNCC1`, the inhibition is -0.625% (Concentration 49.75 uM, Number of replicates 2.0, Standard deviation 0.399 %) and 0.395% (Concentration 99.5 uM, Number of replicates 2.0, Standard deviation 0.282 %). `Cc1ccc(-c2n[nH]cc2CNc2cnc3[nH]ncc3c2)o1`: for the setting “Concentration 50.0 uM, Number of replicates 2.0, Standard deviation 33.024 %”, the inhibition turned out to be 7.23%. Turning to `Cc1n[nH]c(C)c1C(=O)N1CCC(c2ccn3ncc(C(=O)N4CCCCC4)c3c2)CC1`, the inhibition was found to be 10.8% (Concentration 49.75 uM, Number of replicates 2.0, Standard deviation 0.408 %) and 23.3% (Concentration 99.5 uM, Number of replicates 2.0, Standard deviation 0.015 %).

Take `C[C@@H](Cc1ccc(Cl)s1)Nc1ccc([C@@H](CC(=O)O)NC(=O)c2c[nH]c3ncncc23)cc1`: the inhibition reads like this: (Concentration 49.75 uM, Number of replicates 2.0, Standard deviation 2.68 %) -1.54%; (Concentration 99.5 uM, Number of replicates 2.0, Standard deviation 2.267 %) 1.95%. Take `CCN(Cc1nnc(C)o1)C(=O)c1cnn2ccc(C3CCN(C(=O)c4ccccc4)CC3)cc12`: the inhibition was 10% (Concentration 49.75 uM, Number of replicates 2.0, Standard deviation 14.085 %) and -5.31% (Concentration 99.5 uM, Number of replicates 2.0, Standard deviation 1.269 %). In the case of `c1ccc2sc(CCNc3ncnc4nc[nH]c34)nc2c1`, the inhibition (Concentration 50.0 uM, Number of replicates 2.0, Standard deviation 2.493 %) is -4.21%.

In general, inhibition refers to the change of the read-out against control, counted positive when it falls.
